Laboratory results published in PubChem BioAssay (NCI).
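Protocol summary: plate cells (96-well), add compound at 5 concentrations, incubate 48 h, interpolate endpoints linearly. Here, GI50 denotes the concentration required for 50% inhibition of growth. Definition used: TGI = concentration required for complete inhibition of growth.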

Legend:
Assay in all cases: DTP human tumour cell line panel, 48 h
M14 melanoma = tested on: M14 melanoma
K-562 leukemia = tested on: K-562 leukemia
SN12C renal = tested on: SN12C renal
SK-OV-3 ovarian = tested on: SK-OV-3 ovarian
NCI-H460 lung = tested on: NCI-H460 lung
HL-60(TB) leukemia = tested on: HL-60(TB) leukemia
786-0 renal = tested on: 786-0 renal
CAKI-1 renal = tested on: CAKI-1 renal
HT29 colon = tested on: HT29 colon
BT-549 breast = tested on: BT-549 breast

Compound	TGI (M14 melanoma) [µM]	TGI (K-562 leukemia) [µM]	TGI (SN12C renal) [µM]	TGI (SK-OV-3 ovarian) [µM]	TGI (NCI-H460 lung) [µM]	TGI (HL-60(TB) leukemia) [µM]	TGI (786-0 renal) [µM]	TGI (CAKI-1 renal) [µM]	GI50 (HT29 colon) [µM]	TGI (HT29 colon) [µM]	GI50 (M14 melanoma) [µM]	GI50 (K-562 leukemia) [µM]	GI50 (BT-549 breast) [µM]	TGI (BT-549 breast) [µM]	GI50 (SN12C renal) [µM]	GI50 (NCI-H460 lung) [µM]	GI50 (HL-60(TB) leukemia) [µM]	GI50 (786-0 renal) [µM]	GI50 (CAKI-1 renal) [µM]	GI50 (SK-OV-3 ovarian) [µM]
COc1c(NC(C)=O)cc(C)cc1NC(C)=O	> 100	> 100	> 100	> 100	> 100	> 100	> 100	> 100	–	–	–	–	–	–	–	–	–	–	–	–
Oc1ccc(O)c(-c2cc(-c3ccccc3)nn2-c2ccccc2)c1	25.4	> 100	45	–	> 100	> 100	25.2	> 100	73.9	> 100	12.4	21.7	13.4	33.7	17	24.8	24.9	12.2	30.6	–
C=C(C)C1CC2(C)C(C)CC(OC(=O)/C(C)=C\C)CC2C(OC(=O)/C(C)=C\C)C1O (stereo not drawn)	> 100	–	> 100	> 100	> 100	43.6	> 100	> 100	–	> 100	–	–	–	> 100	–	–	–	–	–	–
COC(=O)C1=C(C(=O)OC)C23CC1C1C(C(=O)OC)=C(C(=O)OC)C12C1C=CC3C2C(=O)OC(=O)C21 (stereo not drawn)	> 100	> 100	> 100	–	> 100	> 100	> 100	–	–	> 100	–	–	–	–	–	–	–	–	–	–
NNC(=S)N/N=C(/C(=O)Nc1cc(Cl)ccc1Cl)C1C(=O)Nc2ccccc2S1=O (stereo not drawn)	> 100	> 100	> 100	> 100	> 100	> 100	> 100	> 100	–	> 100	–	–	–	–	–	–	–	–	–	–
COc1ccc(C(=O)C(C(=O)C(=O)Nc2ccc(Cl)c(Cl)c2)c2ccc(OC)cc2)cc1 (stereo not drawn)	> 100	> 100	> 100	–	> 100	> 100	> 100	> 100	–	> 100	–	–	–	–	–	–	–	–	–	–
CC(C)(C)CC(C)(C)c1cc2c(O)c(c1)Cc1cc(C(C)(C)CC(C)(C)C)cc(c1O)Cc1cc(C(C)(C)CC(C)(C)C)cc(c1O)Cc1cc(C(C)(C)CC(C)(C)C)cc(c1O)Cc1cc(C(C)(C)CC(C)(C)C)cc(c1O)Cc1cc(C(C)(C)CC(C)(C)C)cc(c1O)C2	> 100	> 100	> 100	–	> 100	> 100	> 100	–	–	> 100	–	–	–	–	–	–	–	–	–	–
COc1cnc2c(c1)C(=O)c1c-2n(CCCN2CCC(O)CC2)c(=O)c2cc(F)ccc12	1.63	2.31	–	0.783	0.221	0.96	0.925	–	–	–	0.254	0.216	0.697	14.4	–	0.0444	0.293	0.211	–	0.22
CCOC(=O)C1=C(O)CSC1=Nc1ccccc1	> 100	> 100	> 100	> 100	> 100	> 100	> 100	> 100	–	> 100	–	–	–	–	–	–	–	–	–	–
CN[C@@H](C)[C@@H](N)c1ccccc1	> 100	> 100	> 100	> 100	> 100	–	> 100	> 100	–	> 100	–	–	–	–	–	–	–	–	–	–
Cn1nnnc1N/N=C/c1ccccc1	> 10	> 10	> 10	> 10	> 10	> 10	> 10	> 10	–	> 10	–	–	–	–	–	–	–	–	–	–
Cc1cccc(C(=O)/C=C/SC(=NC#N)SCc2ccccc2)c1	59.1	> 100	41.3	> 100	> 100	–	40.5	39.3	56.5	> 100	24.8	22	16.1	36.7	20.4	36.5	–	19.1	13.1	> 100
CC(=O)c1cccc(NC(=O)C(=O)C(C2OC(=O)c3ccccc32)[N+](=O)[O-])c1 (stereo not drawn)	> 100	> 100	> 100	> 100	> 100	> 100	> 100	> 100	–	> 100	–	–	–	–	–	–	–	–	–	–
CCOC(=O)c1cc2c(nc1N)-c1ncccc1CC2	> 100	> 100	> 100	> 100	> 100	> 100	> 100	> 100	–	> 100	–	–	–	–	–	–	–	–	–	–
COc1ccc(N=Nc2c(-c3ccccc3)nn(C(=O)CC(=O)Nc3cccc(Cl)c3)c2-c2ccccc2)cc1	–	> 100	> 100	> 100	> 100	> 100	> 100	> 100	–	> 100	–	–	–	–	–	–	–	–	–	–
COc1cccc2c1-c1c(c3ccc([N+](=O)[O-])cc3c(=O)n1CCCCl)C2=O	> 50	> 50	> 50	> 50	> 50	–	17.4	24.1	> 50	> 50	8.57	> 50	17.1	> 50	15.8	0.972	–	6.4	1.13	21.1
Cc1c(C(=O)C/C(=N/NC(=O)C[n+]2ccccc2)C(=O)Nc2ccccc2)[n+](=O)c2ccccc2n1O	> 100	> 100	> 100	> 100	> 100	> 100	> 100	> 100	–	> 100	–	–	–	–	–	–	–	–	–	–
CC(=O)C1=C(C)Cn2c(=O)c3ccccc3c(=O)n2C1	> 100	> 100	> 100	> 100	> 100	> 100	> 100	> 100	–	> 100	–	–	–	–	–	–	–	–	–	–
CCOc1cc2c(cc1O)/C(=N\O)C[C@@H]1[C@@H]2CC[C@]2(C)[C@@H](O)CC[C@@H]12	> 100	> 94.1	> 100	–	1.47	< 0.0258	> 100	–	3.94	> 100	0.041	0.00978	0.0864	22.5	0.059	–	–	0.015	–	–
COc1ccc(C2=NN(C(=O)c3cc(OC)c(OC)c(OC)c3)C(c3ccc(Cl)cc3)C2)cc1OC (stereo not drawn)	> 100	> 100	56	27.4	> 100	–	27.5	> 54.1	1.4	> 100	4.66	0.777	2.95	71.6	4.89	2.11	–	2.14	1.14	2.89
